Measurements reported in patent US20030109444A1, “Bone anti-resorptive compounds” (priority 2001, published 2003).
“Also recorded” adds a separate entry of the source.

Test system: osteoclast precursors (bone marrow macrophages)
Experiment: Osteoclast differentiation of bone marrow macrophage cultures monitored by TRAP activity
Assay type: cell-based
Conditions: cell cultures of osteoclast precursors (mouse BMMs) with M-CSF, increasing concentrations of peptide, FIG. 1
Description: The effect of a partial AA″ loop polypeptide of RANKL on TRAP activity. Wild type C3H/HENJ mice were purchased from Harlan Industries (Indianapolis, Ind.). In order to establish a cell culture of osteoclast precursors, bone marrow macrophages (BMMs) were isolated from whole bone marrow of four to six week old mice and incubated in tissue culture dishes at 37° C. in 5% CO2. After 24 hours in culture, the non-adherent cells were collected and layered on a Ficoll Hypaque gradient and the cells at the gradient interface were collected. Cells were replated at 65,000/cm^2 in α-minimal essential medium, supplemented with 10% heat inactivated fetal bovine serum, at 37° C. in 5% CO2 in the presence of recombinant mouse M-CSF (10 ng.ml). The cell cultures were then treated either with the increasing concentrations of polypeptide of SEQ ID NO 1 (subset of AA″ loop) or with a negative control scrambled peptide having the same molecular weight as the test compound. […] This phosphatase is an osteoclast specific enzyme and its activity corresponds with osteoclast differentiation. TRAP activity is measured by quantitating its ability to cleave a substrate in a color-producing reaction.

PSGSHKVTLSS [SEQ ID NO 1]
TRAP activity: decreases TRAP activity | inhibition of RANKL-induced osteoclast differentiation as monitored by TRAP (listed as test compound): competitively inhibits the ability of RANKL to induce osteoclast differentiation; also recorded: dose-dependent
